Source: patent US6166091A, “2,3,4-trihydroxycyclopentanone” (Takara Shuzo Co., Ltd., priority 1997, dated 2000)

Tests used:
[1] = storage of aqueous cyclopentenone solution, conversion to hydroxycyclopentanone; format: physicochemical; conditions: water; aqueous solution stored at 4° C. for 30 days; read-out: cyclopentenone changed to hydroxycyclopentanone in aqueous solution
[2] = standing in aqueous solution, TLC detection of cyclopentenone formed; format: physicochemical; conditions: 4 mM in water, 16 hours at 4° C., 37° C. or 45° C.
Experimental: Hydroxycyclopentanone obtained in Example 2-(2) was dissolved in water to make the concentration 4 mM followed by allowing to stand for 16 hours at 4° C., 37° C. or 45° C. One μl of each of the samples was spotted on a silica gel 60 sheet F254 (manufactured by Merck), developed by the upper layer of a mixture of butyl acetate, acetic acid and water (3:2:2) and detected by means of an orcinol-sulfuric acid method. Thus, 400 mg of orcinol monohydrate (manufactured by Nacalai Tesque; 257-30) was dissolved in 22.8 ml of sulfuric acid, water was added to make 200 ml, the solution was sprayed on the thin layer after the development and heated at 120° C. for 1-2 minutes and the resulting spots were observed.

mice = assay: toxicity by oral administration to mice; format: in vivo; conditions: oral administration of 100 mg/kg to mice

Row | SMILES | degraded at 720 h [1] [%] | conversion to cyclopentenone in aqueous solution (TLC spot) [2] | toxicity (mice)
1 | O=C1C=CC(O)C1O (stereo not drawn) [cyclopentenone, 4,5-dihydroxy-2-cyclopenten-1-one] | ~30 |  | 
2 | O=C1CC(O)C(O)C1O (stereo not drawn) [hydroxycyclopentanone, 2,3,4-trihydroxycyclopentanone] |  | a spot for cyclopentenone was noted in all of the samples and the higher the temperature for allowing to stand, the stronger the color of the spot for cyclopentenone | no toxicity was noted
